From PubChem BioAssay (NCI)
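How tested: cells in 96-well plates exposed to compound for 48 hours at five concentrations. GI50 marks 50% less growth. TGI: concentration producing complete growth inhibition.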

Experiments:
Assay in all cases: NCI-60 cell line screen, 48 h
IGROV1 ovarian = test system: IGROV1 ovarian
KM12 colon = test system: KM12 colon
SK-MEL-28 melanoma = test system: SK-MEL-28 melanoma
COLO 205 colon = test system: COLO 205 colon
NCI-H226 lung = test system: NCI-H226 lung
OVCAR-4 ovarian = test system: OVCAR-4 ovarian
OVCAR-8 ovarian = test system: OVCAR-8 ovarian
DU-145 prostate = test system: DU-145 prostate
SK-MEL-5 melanoma = test system: SK-MEL-5 melanoma
RXF 393 renal = test system: RXF 393 renal

SMILES | GI50 (IGROV1 ovarian) [µM] | TGI (IGROV1 ovarian) [µM] | GI50 (KM12 colon) [µM] | TGI (KM12 colon) [µM] | GI50 (SK-MEL-28 melanoma) [µM] | TGI (SK-MEL-28 melanoma) [µM] | GI50 (COLO 205 colon) [µM] | TGI (COLO 205 colon) [µM] | GI50 (NCI-H226 lung) [µM] | TGI (NCI-H226 lung) [µM] | GI50 (OVCAR-4 ovarian) [µM] | TGI (OVCAR-4 ovarian) [µM] | GI50 (OVCAR-8 ovarian) [µM] | TGI (OVCAR-8 ovarian) [µM] | GI50 (DU-145 prostate) [µM] | TGI (DU-145 prostate) [µM] | GI50 (SK-MEL-5 melanoma) [µM] | TGI (SK-MEL-5 melanoma) [µM] | GI50 (RXF 393 renal) [µM] | TGI (RXF 393 renal) [µM]
CN(C)c1ncc(-c2ccc(C(F)(F)F)cc2)c(NC2CCCCCC2)n1 | 32.5 | > 100 | 20.5 | 63.3 | 19.6 | 60.3 | 14.4 | 30.6 | 12.6 | 28.8 | 12.9 | 56.6 | 25.8 | > 100 | 27.1 | > 100 | 14 | 28.3 | 10.8 | 27.2
Fc1ccc(-c2ncn(C3CCNCC3)c2-c2ccnc(Oc3ccc(F)c(F)c3)n2)cc1 | 8.61 | > 22.6 | 6.71 | > 16.2 | 4.57 | 8.79 | 4.55 | 8.47 | 9.34 | > 25 | 5.91 | 18.3 | 4.96 | 10.9 | 8.78 | > 16.7 | 3.55 | 6.83 | 3.15 | 6.48
CC(=O)N1c2ccccc2NC2=C(C(=O)N(Cc3ccccc3)C2(C)C)C1c1ccco1 (configuration not stated) | 0.893 | > 25 | 0.579 | > 16.4 | > 25 | > 25 | 0.742 | > 25 | > 25 | > 25 | > 6.37 | > 25 | 1.24 | > 25 | 0.115 | > 25 | 0.871 | > 25 | 0.599 | 1.87
CS(=O)(=O)Nc1cccc(-c2cc(-c3ccccc3Cl)c(C#N)c(N)n2)c1 | 0.769 | 22.6 | 0.443 | 13.1 | 1.22 | 19.9 | 0.472 | 4.88 | 10.2 | 32.3 | 1.92 | 35.6 | 1.05 | 19.9 | 1.17 | 13 | 0.448 | 13.6 | 0.328 | 2.27
CN1CCN(c2cc(C(=O)Nc3cc4cc(-c5cnn(C)c5)ccc4cn3)ccn2)CC1 | 0.0581 | 3.3 | 0.071 | 11.9 | 0.217 | 2.89 | 0.0673 | 0.494 | 0.205 | 12 | 0.151 | 1.46 | 0.225 | 11.7 | 0.0971 | 11.4 | 0.155 | 0.331 | 0.258 | 0.724
O=C(O)c1cc2ccccc2c(N=Nc2cc(C(F)(F)F)ccc2Cl)c1O |  | > 100 |  | > 100 |  | > 100 |  | > 100 |  | > 100 |  | > 100 |  | > 100 |  | > 100 |  | > 100 |  | > 100
COc1ccc(C[C@@H]2NC[C@@H](O)[C@@H]2OC(C)=O)cc1 | 0.367 | 8.14 | 3.53 |  |  | 0.127 | 2.04 |  | 5.27 |  | 25.9 |  | 3.48 | 0.112 |  | 0.0947 | 0.456 |  |  | 0.0674
Cc1cc(Nc2c3ccccc3nc3ccccc23)ccc1NS(C)(=O)=O | 3.07 | 11 | 4.2 | 16.2 | 5.4 | 19.5 | 2.44 | 6.35 | 4.41 | 22 | 5.03 | 46.5 | 3.41 | 21.7 | 4.87 | 19.9 | 4.2 | 16.6 | 3.46 | 16
